Results taken from US10059688B2, “Protein tyrosine kinase modulators and methods of use” (BETTA PHARMACEUTICALS CO., LTD., priority 2013, dated 2018).

How the values were obtained:
[1] = test system: H1975 (EGFR L858R/T790M) NSCLC cells; experiment: Cell proliferation assay (MTS cell viability); format: cell-based; settings: Homo sapiens, NCI-H1975, 72 h; H1975 cells, 3 days of exposure, MTS
[2] = test system: A549 (EGFR WT) NSCLC cells; experiment: Cell proliferation assay (MTS cell viability); format: cell-based; settings: Homo sapiens, 72 h; A549 cells, 3 days of exposure, MTS
[3] = test system: HCC827 (EGFR Del) NSCLC cells; experiment: Cell proliferation assay (MTS cell viability); format: cell-based; settings: Homo sapiens, 72 h; HCC827 cells, 3 days of exposure, MTS
[4] = target: ALK (h) (Homo sapiens (Human), UniProt Q9UM73); experiment: Kinase assay, single dose inhibition (Millipore, 33P-ATP filter binding); format: biochemical; settings: 0.1 μM test compound, 10 μM ATP, remaining activity relative to DMSO control = 100%; for remaining activity at 0.1 µM: 40 min
[5] = target: EGFR (T790M, L858R) (h) (Homo sapiens (Human), UniProt P00533, L858R/T790M); experiment: as above; format: biochemical; settings: 0.1 μM test compound, 10 μM ATP; remaining activity relative to DMSO control = 100%
Chain of EGFR (T790M, L858R) (h) (P00533 25-1210 T790M/L858R): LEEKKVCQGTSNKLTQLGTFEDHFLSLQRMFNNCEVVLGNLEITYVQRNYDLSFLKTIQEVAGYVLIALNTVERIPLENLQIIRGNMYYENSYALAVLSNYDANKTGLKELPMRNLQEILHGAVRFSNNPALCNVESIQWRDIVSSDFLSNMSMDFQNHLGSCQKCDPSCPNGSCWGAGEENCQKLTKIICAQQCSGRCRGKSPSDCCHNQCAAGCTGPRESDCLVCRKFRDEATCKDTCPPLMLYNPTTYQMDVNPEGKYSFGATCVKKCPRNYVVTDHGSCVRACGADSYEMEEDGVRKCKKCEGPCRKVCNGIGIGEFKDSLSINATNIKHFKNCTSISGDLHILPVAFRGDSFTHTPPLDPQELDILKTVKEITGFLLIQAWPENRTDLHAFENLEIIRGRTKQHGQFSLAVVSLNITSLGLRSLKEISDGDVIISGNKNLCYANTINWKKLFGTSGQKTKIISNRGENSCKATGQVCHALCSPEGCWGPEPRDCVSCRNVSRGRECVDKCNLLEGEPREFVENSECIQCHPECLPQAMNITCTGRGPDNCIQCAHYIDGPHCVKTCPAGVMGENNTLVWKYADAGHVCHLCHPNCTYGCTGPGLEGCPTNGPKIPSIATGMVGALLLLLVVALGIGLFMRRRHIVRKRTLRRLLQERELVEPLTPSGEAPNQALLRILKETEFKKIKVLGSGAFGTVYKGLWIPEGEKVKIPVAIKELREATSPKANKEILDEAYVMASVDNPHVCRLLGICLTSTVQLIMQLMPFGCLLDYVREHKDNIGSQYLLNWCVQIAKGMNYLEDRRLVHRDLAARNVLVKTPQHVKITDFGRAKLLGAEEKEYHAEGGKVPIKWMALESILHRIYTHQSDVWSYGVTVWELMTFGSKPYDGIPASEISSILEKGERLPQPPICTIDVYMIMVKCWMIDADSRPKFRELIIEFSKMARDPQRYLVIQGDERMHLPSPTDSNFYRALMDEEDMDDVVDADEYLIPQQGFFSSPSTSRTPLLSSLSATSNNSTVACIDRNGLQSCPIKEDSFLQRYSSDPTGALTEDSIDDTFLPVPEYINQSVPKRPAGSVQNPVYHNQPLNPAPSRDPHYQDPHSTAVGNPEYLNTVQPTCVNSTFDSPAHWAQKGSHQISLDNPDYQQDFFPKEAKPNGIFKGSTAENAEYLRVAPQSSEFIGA

[6] = target: EGFR (h) (Homo sapiens (Human), UniProt P00533); experiment: as above; format: biochemical; settings: 0.1 μM test compound, 10 μM ATP; remaining activity relative to DMSO control = 100%
Chain of EGFR (h) (P00533 25-1210): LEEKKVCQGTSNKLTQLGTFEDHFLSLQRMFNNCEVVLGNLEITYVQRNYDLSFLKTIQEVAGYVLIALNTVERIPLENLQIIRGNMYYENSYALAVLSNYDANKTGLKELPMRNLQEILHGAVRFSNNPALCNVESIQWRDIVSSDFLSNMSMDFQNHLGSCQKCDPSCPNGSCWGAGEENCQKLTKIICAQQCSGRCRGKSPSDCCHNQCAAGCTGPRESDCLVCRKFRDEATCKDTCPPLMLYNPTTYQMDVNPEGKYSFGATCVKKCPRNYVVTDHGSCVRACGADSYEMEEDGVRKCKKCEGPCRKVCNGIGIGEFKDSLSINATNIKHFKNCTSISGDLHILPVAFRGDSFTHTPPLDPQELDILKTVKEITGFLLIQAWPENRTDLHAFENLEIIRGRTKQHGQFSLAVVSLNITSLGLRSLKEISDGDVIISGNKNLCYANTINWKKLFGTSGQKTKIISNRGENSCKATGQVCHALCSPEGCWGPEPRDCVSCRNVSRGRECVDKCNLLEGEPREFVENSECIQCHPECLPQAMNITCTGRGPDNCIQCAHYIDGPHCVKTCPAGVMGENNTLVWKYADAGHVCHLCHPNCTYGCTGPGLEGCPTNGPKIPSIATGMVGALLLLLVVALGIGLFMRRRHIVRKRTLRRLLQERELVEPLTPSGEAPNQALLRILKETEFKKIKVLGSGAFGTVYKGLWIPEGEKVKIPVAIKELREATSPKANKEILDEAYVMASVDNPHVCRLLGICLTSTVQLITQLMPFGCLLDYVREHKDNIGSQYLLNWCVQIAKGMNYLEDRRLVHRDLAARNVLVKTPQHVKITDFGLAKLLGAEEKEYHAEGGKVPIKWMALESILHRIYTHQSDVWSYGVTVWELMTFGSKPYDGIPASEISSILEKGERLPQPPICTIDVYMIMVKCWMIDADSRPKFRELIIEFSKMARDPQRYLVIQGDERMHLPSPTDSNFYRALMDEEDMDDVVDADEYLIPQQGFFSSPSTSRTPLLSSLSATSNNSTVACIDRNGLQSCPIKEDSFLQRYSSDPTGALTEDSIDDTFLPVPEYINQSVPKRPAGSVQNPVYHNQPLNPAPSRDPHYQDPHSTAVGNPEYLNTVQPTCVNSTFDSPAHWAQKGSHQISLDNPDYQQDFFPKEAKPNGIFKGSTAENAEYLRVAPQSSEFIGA

[7] = target: EGFR (L858R) (h) (Homo sapiens (Human), UniProt P00533, L858R); experiment: as above; format: biochemical; settings: 0.1 μM test compound, 10 μM ATP; remaining activity relative to DMSO control = 100%
Chain of EGFR (L858R) (h) (P00533 25-1210 L858R): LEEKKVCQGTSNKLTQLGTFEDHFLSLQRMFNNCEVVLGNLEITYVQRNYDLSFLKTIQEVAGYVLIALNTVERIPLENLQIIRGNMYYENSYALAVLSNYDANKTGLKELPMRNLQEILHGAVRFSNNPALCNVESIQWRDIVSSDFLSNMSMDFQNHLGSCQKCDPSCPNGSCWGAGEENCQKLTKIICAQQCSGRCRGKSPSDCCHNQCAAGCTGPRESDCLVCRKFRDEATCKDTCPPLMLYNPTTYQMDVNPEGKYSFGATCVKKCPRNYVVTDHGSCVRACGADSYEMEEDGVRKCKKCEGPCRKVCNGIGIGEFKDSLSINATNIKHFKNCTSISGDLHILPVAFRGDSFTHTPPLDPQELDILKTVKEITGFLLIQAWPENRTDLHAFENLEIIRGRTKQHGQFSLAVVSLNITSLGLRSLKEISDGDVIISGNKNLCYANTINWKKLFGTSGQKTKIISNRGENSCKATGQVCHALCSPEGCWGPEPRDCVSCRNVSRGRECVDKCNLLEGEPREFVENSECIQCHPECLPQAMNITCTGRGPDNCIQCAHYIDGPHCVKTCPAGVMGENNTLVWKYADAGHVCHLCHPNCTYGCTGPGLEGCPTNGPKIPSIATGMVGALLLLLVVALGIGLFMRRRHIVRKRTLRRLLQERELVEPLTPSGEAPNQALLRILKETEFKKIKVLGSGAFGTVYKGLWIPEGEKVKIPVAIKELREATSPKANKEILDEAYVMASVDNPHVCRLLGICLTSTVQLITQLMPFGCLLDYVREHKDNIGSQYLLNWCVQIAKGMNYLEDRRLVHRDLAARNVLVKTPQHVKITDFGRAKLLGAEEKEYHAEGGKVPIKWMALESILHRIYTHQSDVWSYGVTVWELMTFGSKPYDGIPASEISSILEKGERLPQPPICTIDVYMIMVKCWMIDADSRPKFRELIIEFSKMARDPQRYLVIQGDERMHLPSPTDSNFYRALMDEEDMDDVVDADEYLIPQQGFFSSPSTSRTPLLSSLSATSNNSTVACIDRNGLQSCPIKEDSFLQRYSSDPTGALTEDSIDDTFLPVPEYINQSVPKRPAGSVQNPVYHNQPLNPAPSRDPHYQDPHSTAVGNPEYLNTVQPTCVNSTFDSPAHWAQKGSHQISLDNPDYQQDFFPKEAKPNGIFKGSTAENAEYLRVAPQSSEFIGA

[8] = target: EGFR (T790M) (h) (Homo sapiens (Human), UniProt P00533, T790M); experiment: as above; format: biochemical; settings: 0.1 μM test compound, 10 μM ATP; remaining activity relative to DMSO control = 100%
Chain of EGFR (T790M) (h) (P00533 25-1210 T790M): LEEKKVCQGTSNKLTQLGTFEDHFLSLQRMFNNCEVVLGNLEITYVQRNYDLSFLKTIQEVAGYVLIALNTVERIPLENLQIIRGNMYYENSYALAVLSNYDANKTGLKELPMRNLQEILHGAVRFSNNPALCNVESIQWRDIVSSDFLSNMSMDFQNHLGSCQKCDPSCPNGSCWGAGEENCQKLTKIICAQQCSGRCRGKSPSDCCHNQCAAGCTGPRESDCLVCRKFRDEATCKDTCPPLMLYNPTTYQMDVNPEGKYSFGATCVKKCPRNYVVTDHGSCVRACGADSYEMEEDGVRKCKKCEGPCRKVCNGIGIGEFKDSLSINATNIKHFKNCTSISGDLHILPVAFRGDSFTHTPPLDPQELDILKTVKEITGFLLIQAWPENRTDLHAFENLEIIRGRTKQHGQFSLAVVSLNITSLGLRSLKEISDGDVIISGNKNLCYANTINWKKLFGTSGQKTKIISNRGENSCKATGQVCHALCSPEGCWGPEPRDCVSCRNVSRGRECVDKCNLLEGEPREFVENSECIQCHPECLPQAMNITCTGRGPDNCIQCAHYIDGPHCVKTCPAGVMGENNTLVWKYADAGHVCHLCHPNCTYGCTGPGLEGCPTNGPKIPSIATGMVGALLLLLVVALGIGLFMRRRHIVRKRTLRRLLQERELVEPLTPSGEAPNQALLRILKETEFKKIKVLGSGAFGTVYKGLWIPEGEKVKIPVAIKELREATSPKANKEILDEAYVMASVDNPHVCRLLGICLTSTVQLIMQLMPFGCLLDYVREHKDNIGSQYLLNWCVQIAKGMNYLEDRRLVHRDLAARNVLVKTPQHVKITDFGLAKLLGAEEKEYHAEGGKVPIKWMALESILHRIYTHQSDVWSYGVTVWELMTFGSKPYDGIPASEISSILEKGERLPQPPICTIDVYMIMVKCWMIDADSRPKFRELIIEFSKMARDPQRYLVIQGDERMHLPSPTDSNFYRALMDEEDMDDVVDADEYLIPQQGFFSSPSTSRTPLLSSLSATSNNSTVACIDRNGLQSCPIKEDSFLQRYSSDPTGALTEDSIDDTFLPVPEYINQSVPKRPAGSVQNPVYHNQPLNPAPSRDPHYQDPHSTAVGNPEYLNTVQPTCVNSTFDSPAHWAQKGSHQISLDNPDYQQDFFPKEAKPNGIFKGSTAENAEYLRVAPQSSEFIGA

IC50 [1] [nM]	IC50 [2] [nM]	IC50 [3] [nM]	Activity (control) % ALK (h) [4] [%]	Activity (control) % EGFR (T790M, L858R) (h) [5] [%]	Activity (control) % EGFR (h) [6] [%]	Activity (control) % EGFR (L858R) (h) [7] [%]	Activity (control) % EGFR (T790M) (h) [8] [%]	SMILES	remaining activity at 0.1 µM [4] [%]
640	> 3000	> 3000	–	–	–	–	–	CNC(=O)C(=O)c1ccccc1Nc1nc(Nc2ccc(F)c(OC)c2)ncc1Cl [Example 63, 2-(2-(5-chloro-2-(4-fluoro-3-methoxyphenylamino)pyrimidin-4-ylamino)phenyl)-N-methyl-2-oxoacetamide]	–
–	–	–	36	3	68	37	2	C=C(CN(C)C)C(=O)Nc1ccc(OC)c(Nc2ncc(Cl)c(Nc3ccccc3C(=O)C(=O)N(C)C)n2)c1 [Example 78, N-(3-(5-chloro-4-(2-(2-(dimethylamino)-2-oxoactyl)phenylamino)pyrimidin-2-ylamino)-4-methoxyphenyl)-2-((dimethylamino)methyl)acrylamide]	–
–	–	–	6	9	100	84	45	COc1cc(Nc2ncc(Cl)c(Nc3ccccc3C(=O)C(=O)N(C)C)n2)ccc1N1CCN(C(C)=O)CC1 [Example 94, 2-(2-(2-(4-(4-acetylpiperazin-1-yl)-3-methoxyphenylamino)-5-chloropyrimidin-4-ylamino)phenyl)-N,N-dimethyl-2-oxoacetamide]	–
–	–	–	7	2	92	25	16	COc1ccc(NC(=O)/C=C/CN2CCOCC2)cc1Nc1ncc(Cl)c(Nc2ccccc2C(=O)C(=O)N(C)C)n1 [Example 79, (E)-N-(3-(5-chloro-4-(2-(2-(dimethylamino)-2-oxoacetyl)phenylamino)pyrimidin-2-ylamino)-4-methoxyphenyl)-4-morpholinobut-2-enamide]	–
–	–	–	17	3	67	37	3	C=C(CN1CCCCC1)C(=O)Nc1ccc(OC)c(Nc2ncc(Cl)c(Nc3ccccc3C(=O)C(=O)N(C)C)n2)c1 [Example 73, N-(3-(5-chloro-4-(2-(2-(dimethylamino)-2-oxoactyl)phenylamino)pyrimidin-2-ylamino)-4-methoxyphenyl)-2-(piperidin-1-ylmethyl)acrylamide]	–
–	–	–	35	41	110	94	83	C=CC(=O)Nc1cc(Nc2ncc(C)c(Nc3ccccc3C(=O)C(=O)N(C)C)n2)ccc1OC [Example 101, N-(5-(4-(2-(2-(dimethylamino)-2-oxoacetyl)phenylamino)-5-methylpyrimidin-2-ylamino)-2-methoxyphenyl)acrylamide]	–
–	–	–	8	1	67	10	5	C=CC(=O)Nc1ccc(OC)c(Nc2ncc(Cl)c(Nc3ccccc3C(=O)C(=O)N3CCN(C)CC3)n2)c1 [Example 89, N-(3-(5-chloro-4-(2-(2-(4-methylpiperazin-1-yl)-2-oxoacetyl)phenylamino)pyrimidin-2-ylamino)-4-methoxyphenyl)acrylamide]	–
–	–	–	–	54	99	104	92	C=CC(=O)Nc1ccc(OC2CCOC2)c(Nc2ncc(Cl)c(Nc3ccccc3C(=O)C(=O)N(C)C)n2)c1 (centres unmarked) [Example 136, N-(3-(5-chloro-4-(2-(2-(dimethylamino)-2-oxoactyl)phenylamino)pyrimidin-2-ylamino)-4-(tetrahydrofuran-3-yloxy)phenyl)acrylamide]	29
–	> 3000	–	–	–	–	–	–	C=CC(=O)Nc1cccc(Oc2nc(Nc3ccc(N4CCN(C)CC4)cc3OC)ncc2Cl)c1 [WZ4002, reference compound]	–
–	–	–	10	8	91	52	47	CN(C)C/C=C/C(=O)Nc1cccc(Nc2ncc(Cl)c(Nc3ccccc3C(=O)C(=O)N(C)C)n2)c1 [Example 114, (E)-N-(3-(5-chloro-4-(2-(2-(dimethylamino)-2-oxoacetyl)phenylamino)pyrimidin-2-ylamino)phenyl)-4-(dimethylamino)but-2-enamide]	–
–	–	–	5	5	98	57	40	C=CC(=O)Nc1cc(Nc2ncc(Cl)c(Nc3ccccc3C(=O)C(=O)N(C)CCN(C)C)n2)ccc1OC [Example 102, N-(5-(5-chloro-4-(2-(2-((2-(dimethylamino)ethyl)(methyl)amino)-2-oxoactyl)phenylamino)pyrimidin-2-ylamino)-2-methoxyphenyl)acrylamide]	–

SMILES	IC50 [1] [nM]	IC50 [2] [nM]	IC50 [3] [nM]	Activity (control) % ALK (h) [4] [%]	Activity (control) % EGFR (T790M, L858R) (h) [5] [%]	Activity (control) % EGFR (h) [6] [%]	Activity (control) % EGFR (L858R) (h) [7] [%]	Activity (control) % EGFR (T790M) (h) [8] [%]	remaining activity at 0.1 µM [4] [%]
CCN(CC)C(=O)C(=O)c1ccccc1Nc1nc(Nc2ccc(N3CCN(C)CC3)c(OC)c2)ncc1Cl [Example 130, 2-(2-(5-chloro-2-(3-methoxy-4-(4-methylpiperazin-1-yl)phenylamino)pyrimidin-4-ylamino)phenyl)-N,N-diethyl-2-oxoacetamide]	–	–	–	13	22	113	98	84	–
COc1cc(Nc2ncc(Cl)c(Nc3ccccc3C(=O)C(=O)N(C)C)n2)ccc1N1CCOCC1 [Example 117, 2-(2-(5-chloro-2-(3-methoxy-4-morpholinophenylamino)pyrimidin-4-ylamino)phenyl)-N,N-dimethyl-2-oxoacetamide]	–	–	–	8	14	113	88	65	–
C=C(CN1CCOCC1)C(=O)Nc1ccc(OC)c(Nc2ncc(Cl)c(Nc3ccccc3C(=O)C(=O)N(C)C)n2)c1 [Example 41, N-(3-(5-chloro-4-(2-(2-(dimethylamino)-2-oxoacetyl)phenylamino)pyrimidin-2-ylamino)-4-methoxyphenyl)-2-(morpholinomethyl)acrylamide]	–	–	–	–	3	76	39	2	21
C=CC(=O)Nc1cc(Nc2ncc(Cl)c(Nc3ccccc3C(=O)C(=O)N(CC)CC)n2)ccc1OC [Example 132, N-(5-(5-chloro-4-(2-(2-(diethylamino)-2-oxoactyl)phenylamino)pyrimidin-2-ylamino)-2-methoxyphenyl)acrylamide]	–	–	–	16	30	103	114	77	–
C=CC(=O)Nc1cc(Nc2ncc(Cl)c(Nc3ccccc3C(=O)C(=O)N(C)C)n2)ccc1N1CCN(C)CC1 [Example 111, N-(5-(5-chloro-4-(2-(2-(dimethylamino)-2-oxoactyl)phenylamino)pyrimidin-2-ylamino)-2-(4-methylpiperazin-1-yl)phenyl)acrylamide]	–	–	–	8	11	109	76	59	–
COc1ccc(NC(=O)/C=C/CN2CCCCC2)cc1Nc1ncc(Cl)c(Nc2ccccc2C(=O)C(=O)N(C)C)n1 [Example 72, (E)-N-(3-(5-chloro-4-(2-(2-(dimethylamino)-2-oxoacetyl)phenylamino)pyrimidin-2-ylamino)-4-methoxyphenyl)-4-(piperidin-1-yl)but-2-enamide]	–	–	–	14	9	102	28	54	–
CCC(=O)Nc1cc(Nc2ncc(Cl)c(Nc3ccccc3C(=O)C(=O)N(C)C)n2)ccc1OCCN(C)C [Example 120, N-(5-(5-chloro-4-(2-(2-(dimethylamino)-2-oxoactyl)phenylamino)pyrimidin-2-ylamino)-2-(2-(dimethylamino)ethoxy)phenyl)propionamide]	–	–	–	8	14	115	76	62	–
C=C(CN(C)CCN(C)C)C(=O)Nc1cccc(Nc2ncc(Cl)c(Nc3ccccc3C(=O)C(=O)N(C)C)n2)c1 [Example 125, N-(3-(5-chloro-4-(2-(2-(dimethylamino)-2-oxoacetyl)phenylamino)pyrimidin-2-ylamino)phenyl)-2-(((2-(dimethylamino)ethyl)(methyl)amino)methyl)acrylamide]	–	–	–	20	2	106	54	18	–
